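Grown in 96-well plates, cells were treated for 48 hours with each compound at five concentrations. Insufficient inhibition: endpoint recorded as highest concentration tested. GI50 = concentration required for 50% inhibition of growth.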 Calls of active or inactive are those of the source. No stated cut-off is given here; in the data, active = GI50 up to about 1.1 µM and inactive = higher.
Assays:
Assay in all cases: NCI-60 cell line screen, 48 h
[1] = system: A498
[2] = system: DU-145
[3] = system: HCC 2998
[4] = system: HCT-116
[5] = system: HCT-15
[6] = system: KM12
[7] = system: LOX IMVI
[8] = system: M14
[9] = system: MCF7
[10] = system: MDA-N
[11] = system: MOLT-4
[12] = system: NCI-H522
[13] = system: OVCAR-4
[14] = system: SF-295
[15] = system: SK-MEL-28
[16] = system: TK-10
[17] = system: UACC-62
[18] = system: OVCAR-3
[19] = system: SK-MEL-2
[20] = system: RPMI-8226

Structure (SMILES)	GI50 [1]	GI50 [2]	GI50 [3]	GI50 [4]	GI50 [5] [µM]	GI50 [6]	GI50 [7]	GI50 [8]	GI50 [9]	GI50 [10]	GI50 [11]	GI50 [12]	GI50 [13]	GI50 [14]	GI50 [15]	GI50 [16]	GI50 [17]	GI50 [18]	GI50 [19]	GI50 [20]
COc1ccc(-c2c(=O)[nH]n3c(=S)[nH]c(-c4ccccc4)nc23)cc1OC	18.1 µM (inactive)	23 µM (inactive)	18.5 µM (inactive)	16.6 µM (inactive)	17.3	17.7 µM (inactive)	17.2 µM (inactive)	19.9 µM (inactive)	15.8 µM (inactive)	14.8 µM (inactive)	8.51 µM (inactive)	17.5 µM (inactive)	21 µM (inactive)	20.8 µM (inactive)	21.3 µM (inactive)	22.6 µM (inactive)	19.1 µM (inactive)	–	–	–
C=CCOc1ccc(C2C(C(=O)OC)C(=O)CC(O)(c3ccccc3)C2C(=O)OC)cc1OC (stereo unspecified)	22.8 µM (inactive)	51.6 µM (inactive)	40.5 µM (inactive)	20 µM (inactive)	> 100	23.5 µM (inactive)	40.1 µM (inactive)	–	21.2 µM (inactive)	58.9 µM (inactive)	27.5 µM (inactive)	22.4 µM (inactive)	23.6 µM (inactive)	26.9 µM (inactive)	41 µM (inactive)	33.7 µM (inactive)	27.4 µM (inactive)	45.6 µM (inactive)	26.4 µM (inactive)	–
COc1cc(C2c3cc4c(cc3OC(NNS(=O)(=O)c3ccc(C)cc3)C2C)OCO4)cc(OC)c1O (stereo unspecified)	7.98 µM (inactive)	33.8 µM (inactive)	23.7 µM (inactive)	9.44 µM (inactive)	8.32	8.81 µM (inactive)	12 µM (inactive)	15.6 µM (inactive)	6.24 µM (inactive)	5.21 µM (inactive)	2.52 µM (inactive)	25 µM (inactive)	6.32 µM (inactive)	3.52 µM (inactive)	28.9 µM (inactive)	5.41 µM (inactive)	15.2 µM (inactive)	13.7 µM (inactive)	–	10.1 µM (inactive)
FC(F)(F)c1ccc2c(c1)nc(-c1ccc(Cl)cc1)n2CC1CCCN2CCCCC12 (stereo unspecified)	14.2 µM (inactive)	14.9 µM (inactive)	13.5 µM (inactive)	14.3 µM (inactive)	14.4	15.8 µM (inactive)	14.3 µM (inactive)	14 µM (inactive)	14.5 µM (inactive)	15.7 µM (inactive)	0.233 µM (active)	13.2 µM (inactive)	15.8 µM (inactive)	16.7 µM (inactive)	14.9 µM (inactive)	14.9 µM (inactive)	14.8 µM (inactive)	18.4 µM (inactive)	15.9 µM (inactive)	–
CCCc1n[nH]c(=O)n1N1C(=O)C=CC1=O	> 100 µM (inactive)	> 100 µM (inactive)	> 100 µM (inactive)	> 100 µM (inactive)	> 100	–	–	> 100 µM (inactive)	> 100 µM (inactive)	> 100 µM (inactive)	> 100 µM (inactive)	> 100 µM (inactive)	> 100 µM (inactive)	> 100 µM (inactive)	–	> 100 µM (inactive)	> 100 µM (inactive)	> 100 µM (inactive)	> 100 µM (inactive)	–
CNC(=O)N1CCN(C(=O)NC)CCN(C(=O)NC)CC1	> 100 µM (inactive)	> 100 µM (inactive)	> 100 µM (inactive)	> 100 µM (inactive)	> 100	–	> 100 µM (inactive)	> 100 µM (inactive)	> 100 µM (inactive)	> 100 µM (inactive)	> 100 µM (inactive)	> 100 µM (inactive)	–	> 100 µM (inactive)	> 100 µM (inactive)	> 100 µM (inactive)	> 100 µM (inactive)	–	> 100 µM (inactive)	> 100 µM (inactive)

Source: ChEMBL document CHEMBL1201862, “PubChem BioAssay data set” (2004)
